According to patent publication US20090076012A1, “Modulation of pathogenicity” (priority 2002, published 2009):

System: bioluminescent sensor strain Escherichia coli MT102 (pSB403)
Experiment: Biosensor assay: quorum sensing inhibition, bioluminescence of the sensor strain
Assay type: cell-based
Conditions: 3oxo-C6-HSL 100 nM, bioluminescence after 4 hours at 30° C.
Procedure: Quorum sensing inhibition of the compounds was investigated with the aid of the bioluminescent sensor strain Escherichia coli MT102 (pSB403) (Winson et al., FEMS Microbiol. Lett. 163:185-92, 1998). Plasmid pSB403 contains the Photobacterium fischeri luxR gene together with the […] promoter region as a transcriptional fusion to the bioluminescence genes luxCDABE of Photorhabdus luminescence.
Inhibitory studies were conducted in a microtitre dish assay as follows: the E. coli sensor strain grown over night in LB medium (Sambrook et al., Molecular Cloning: A Laboratory Manual. 2nd Edn. Cold Spring Harbor Laboratory, New York, 1989) was diluted 1:4 and grown for another 1 hour at 30° C. After addition of 3oxo-C6-HSL (final concentration 100 nM) 100 μl of an exponential culture suspension were filled in the wells of a FluoroNunc Polysorp microtitre dish. The test compounds were added to the culture in different concentrations and bioluminescence was measured after 4 hours of incubation at 30° C. with a Lamda Fluoro 320 Plus reader (Bio-Tek Instruments). Inhibitor-mediated reduction of light emission was correlated with the value obtained without addition of the test compounds. IC50 values (concentration of inhibitor required for 50% inhibition of the signal compared to the signal without inhibitor) were determined by using a fitting function after drawing a graph of the activities of eight different inhibitor concentrations.

Structure (SMILES)	IC50 (Escherichia coli, 4 h) [µM]	IC50 [µM]
Cc1nc(C(F)(F)F)ccc1C(=O)NNC(=O)c1cccs1 [Compound 27, 2-Methyl-6-trifluoromethyl-nicotinic acid N′-(thiophene-2-carbonyl)-hydrazide]	1 to 50	
CCCCCCCCCC(=O)CC(=O)Nc1ccnn1CC [Compound 117, 3-Oxo-dodecanoic acid (2-ethyl-2H-pyrazol-3-yl)-amide]	> 100	
Cn1ncc(Br)c1NC(=O)CCCCCBr [Compound 23, 6-Bromo-hexanoic acid (4-bromo-2-methyl-2H-pyrazol-3-yl)-amide]	1 to 50	
O=C(NNC(=O)c1sccc1Br)c1ccc(Cl)s1 [Compound 48]	50 to 100	
COc1ccc(NC(=O)c2sccc2Br)cn1 [Compound 2, 3-Bromo-thiophene-2-carboxylic acid (6-methoxy-pyridin-3-yl)-amide]	1 to 50	
Cc1cc(C(=O)NNC(=O)c2sc3ccccc3c2Cl)n(C)n1 [Compound 64, 2,5-Dimethyl-2H-pyrazole-3-carboxylic acid N′-(3-chloro-benzo[b]thiophene-2-carbonyl)-hydrazide]	> 100	
CCCCCCC(=O)CC(=O)Nc1ccnn1C [Compound 114, 3-Oxo-nonanoic acid (2methyl-2H-pyrazol-3-yl)-amide]	> 100	
CCCCCCC(=O)CC(=O)Nc1oc(C)c(C)c1C#N [Compound 136, 3-Oxo-nonanoic acid (3-cyano-4,5-dimethyl-furan-2-yl)-amide]	> 100	
Cn1nc(C(C)(C)C)cc1C(=O)NNC(=O)c1cccs1 [Compound 70, Thiophene-2-carboxylic acid N′-(5-tert-butyl-2-methyl-2H-pyrazole-3-carbonyl)-hydrazide]	> 100	
O=C(Nc1ccc(OC(F)(F)F)cc1)c1cnc(Cl)nc1C(F)(F)F [Compound 7, 2-Chloro-4-trifluoromethyl-pyrimidine-5-carboxylic acid (4-trifluoromethoxy-phenyl)-amide]	1 to 50	
CCCCCCC(=O)CC(=O)Nc1nc(SC)sc1C(C)=O [Compound 129, 3-Oxo-nonanoic acid (5-acetyl-2-methylsulfanyl-thiazol-4-yl)-amide]	> 100	
Cn1nccc1NC(=O)c1cnc(Cl)nc1C(F)(F)F [Compound 1, 2-Chloro-4-trifluoromethyl-pyrimidine-5-carboxylic acid (2-methyl-2H-pyrazol-3-yl)-amide]	1 to 50	
O=C(NNC(=O)c1sc2ccccc2c1Cl)c1sccc1Br [Compound 61, 3-Chloro-benzo[b]thiophene-2-carboxylic acid N′-(3-bromo-thiophene-2-carbonyl)-hydrazide]	50 to 100	
Cc1csc(C(=O)NNC(=O)c2ccc(C(F)(F)F)cc2)c1 [Compound 28, 4-Trifluoromethyl-benzoic acid N′-(4-methyl-thiophene-2-carbonyl)-hydrazide]	50 to 100	
O=C(NNC(=O)c1ccc(Cl)s1)c1cccs1 [Compound 52, Thiophene-2-carboxylic acid N′-(5-chloro-thiophene-2-carbonyl)-hydrazide]	50 to 100	
CCn1nc(C)c(Br)c1C(=O)Nc1ccnn1C [Compound 12, 4-Bromo-2-ethyl-5-methyl-2H-pyrazole-3-carboxylic acid (2-methyl-2H-pyrazol-3-yl)-aide]	1 to 50	
COc1ccc(NC(=O)NNC(=O)c2ccc(Br)s2)cc1 [Compound 109, 1-(5-Bromo-thiophene-2-carbonyl)-4-(4-methoxy-phenyl)-semicarbazide]	> 100	
O=C(NNC(=O)c1cc(Br)c(Br)s1)Nc1ccc(Cl)c(C(F)(F)F)c1 [Compound 103, 4-(4-Chloro-3-trifluoromethyl-phenyl)-1-(4,5-dibromo-thiophene-2-carbonyl)-semicarbazide]	50 to 100	

Structure (SMILES)	IC50 (Escherichia coli, 4 h) [µM]	IC50 [µM]
O=C(NNC(=O)c1cnn(-c2ccc(Cl)cc2)c1C(F)(F)F)c1cccs1 [Compound 34, Thio-phene-2-carboxylic acid N′-[1-(4-chloro-phenyl)-5-trifluoromethyl-1H-pyrazole-4-carbonyl]-hydrazide]	50 to 100	
O=C(NNC(=O)c1sccc1Cl)c1cccs1 [Compound 51, 3-Chloro-thiophene-2-carboxylic acid N′-(thiophene-2-carbonyl)-hydrazide]	50 to 100	
CCCCCNC(=O)NNC(=O)c1cc(Br)c(Br)s1 [Compound 101, 1-(4,5-Dibromo-thiophene-2-carbonyl)-4-pentyl-semicarbazide]	> 100	
CCCCCCCC(=O)NNC(=O)c1sccc1Br [Compound 85, 3-Bromo-thiophene-2carboxylic acid N′-octanoyl-hydrazide]	1 to 50	
O=C(NNC(=O)c1sccc1Cl)c1sccc1Cl [Compound 49, 3-Chloro-thiophene-2-carboxylic acid N′-(3-chloro-thiophene-2-carbonyl)-hydrazide]	50 to 100	
CCn1nc(C)c(Br)c1C(=O)NNC(=O)c1cc(Br)c(Br)s1 [Compound 74, 4-Bromo-2-ethyl-5-methyl-2H-pyrazole-3-carboxylic acid N′-(4,5-di-bromo-thiophene-2-carbonyl)-hydrazide]	> 100	
O=C(Nc1cccnc1)c1cc(Cl)sc1Cl [Compound 3, 2,5-Dichloro-thio-phene-3-carboxylic acid pyridin-3-ylamide]	1 to 50	
CCCCCCCCCC(=O)CC(=O)Nc1ccnn1C [Compound 115, 3-Oxo-dodecanoic acid (2-methyl-2H-pyrazol-3-yl)-amide]	> 100	
CCn1nc(C)c(Br)c1C(=O)NNC(=O)c1ccc(Cl)s1 [Compound 67, 4-Bromo-2ethyl-5-methyl-2H-pyrazole-3-carboxylic acid N′-(5-chloro-thiophene-2-carbonyl)-hydrazide]		> 100
CCCCCCC(=O)NNC(=O)c1ccc(C)s1 [Compound 83, 5-Methyl-thiophene-2-carboxylic acid N′-heptanoyl-hydrazide]	1 to 50	
COc1c(C(=O)NNC(=O)c2ccc(C)s2)csc1Br [Compound 53, 5-Bromo-4-methoxy-thiophene-3-carboxylic acid N′-(5-methyl-thiophene-2-carbonyl)-hydrazide]	1 to 50	
Cn1nc(-c2ccc(Cl)cc2)cc1NC(=O)c1cccs1 [Compound 14, Thiophene-2-carboxylic acid [5-(4-chloro-phenyl)-2-methyl-2H-pyrazol-3-yl]-amide]	1 to 50	
O=C(NNC(=O)c1sccc1Br)c1cccs1 [Compound 55, Thiophene-2-carboxylic acid N′-(3-bromo-thiophene-2-carbonyl)-hydrazide]	1 to 50	
CCCCCCCC(=O)NNC(=O)c1ccnc(Cl)c1 [Compound 93, 2-Chloro-isonicotinic acid N′-octanoyl-hydrazide]	1 to 50	
Cc1c(C(=O)NNC(=O)c2cccs2)[n+]([O-])c2ccccc2[n+]1[O-] [Compound 32, N′-(3-Methyl-1,4dioxy-quinoxaline-2-carbonyl)-thiophene-2-carboxylic acid hydrazide]	50 to 100	
CSc1ccc(NC(=O)NNC(=O)c2scc(C)c2Cl)cc1 [Compound 105, 1-(3-Chloro-4-methyl-thiophene-2-carbonyl)-4-(4-methylsulfanyl-phenyl)-semicarbazide]	1 to 50	
O=C(NNC(=O)c1sccc1Cl)c1cnn(-c2ccccc2)c1C(F)(F)F [Compound 33, 3-Chloro-thiophene-2-carboxylic acid N′-(1-phenyl-5-trifluoromethyl-1H-pyrazole-4-carbonyl)-hydrazide]	> 100	
